Results: US20200331850A1, “NOVEL SULFONAMIDE CARBOXAMIDE COMPOUNDS” (Inflazome Limited, priority 2017, published 2020)
Where a name gives a salt, the structure may show the parent alone.

biological target: NLRP3 (Homo sapiens, UniProt Q96P20); experiment: THP-1 cells pyroptosis assay (LPS + nigericin, resazurin readout); format: cell-based; set-up: Seed THP-1 cells (25,000 cells/well) containing 1.0 μg/ml LPS in 40 μl of RPMI medium; host or cells: THP-1 cells, LPS-primed and nigericin-stimulated; settings: NLRP3 inhibitory activity in THP-1 cells, 1.0 μg/ml LPS, 5 μM nigericin
Excerpt: It is well established that the activation of NLRP3 leads to cell pyroptosis and this feature plays an important part in the manifestation of clinical disease (Yan-gang Liu et al., Cell Death & Disease, 2017, 8(2), e2579; Alexander Wree et al., Hepatology, 2014, 59(3), 898-910; Alex Baldwin et al., Journal of Medicinal Chemistry, 2016, 59(5), 1691-1710; Ema Ozaki et al., Journal of Inflammation Research, 2015, 8, 15-27; Zhen Xie & Gang Zhao, Neuroimmunology Neuroinflammation, 2014, 1(2), 60-65; Mattia Cocco et al., Journal of Medicinal Chemistry, 2014, 57(24), 10366-10382; T. Satoh et al., Cell Death & Disease, 2013, 4, e644). Therefore, it is anticipated that inhibitors of NLRP3 will block pyroptosis, as well as the release of pro-inflammatory cytokines (e.g. IL-1β) from the cell. THP-1 cells (ATCC # TIB-202) were grown in RPMI containing L-glutamine (Gibco #11835) supplemented with 1 mM sodium pyruvate (Sigma # S8636) and penicillin (100 units/ml)/streptomycin (0.1 mg/ml) (Sigma # P4333) in 10% Fetal Bovine Serum (FBS) (Sigma # F0804). The cells were routinely passaged and grown to confluency (˜10^6 cells/ml). On the day of the experiment, THP-1 cells were harvested and resuspended into RPMI medium (without FBS). The cells were then counted and viability (>90%) checked by Trypan blue (Sigma # T8154). Appropriate dilutions were made to give a concentration of 625,000 cells/ml. To this diluted cell solution was added LPS (Sigma # L4524) to give a […] Final Assay Concentration (FAC). 40 μl of the final preparation was aliquoted into each well of a 96-well plate. The plate thus prepared was used for compound screening. The following method step-by-step assay was followed for compound screening. • 1. Seed THP-1 cells (25,000 cells/well) containing 1.0 μg/ml LPS in 40 μl of RPMI medium (without FBS) in 96-well, black walled, clear bottom cell culture plates coated with poly-D-lysine (VWR #734-0317) • 2. Add 5 μl compound (8 points half-log dilution, with 10 μM top dose) or vehicle (DMSO 0.1% FAC) to the appropriate wells • 3. […] Add 5 μl nigericin (Sigma # N7143) (FAC 5 μM) to all wells • 5. […] At the end of the incubation period, spin plates at 300×g for 3 mins and remove supernatant • 7. Then add 50 μl of resazurin (Sigma # R7017) (FAC 100 μM resazurin in RPMI medium without FBS) and incubate plates for a further 1-2 hrs at 37° C. and 5% CO2 • 8. Plates were read in an Envision reader at Ex 560 nm and Em 590 nm • 9. IC50 data is fitted to a non-linear regression equation (log inhibitor vs response-variable slope 4-parameters) The results of the pyroptosis assay performed are summarised in Table 1 below as THP IC50.

Chain of NLRP3 (Q96P20 whole entry): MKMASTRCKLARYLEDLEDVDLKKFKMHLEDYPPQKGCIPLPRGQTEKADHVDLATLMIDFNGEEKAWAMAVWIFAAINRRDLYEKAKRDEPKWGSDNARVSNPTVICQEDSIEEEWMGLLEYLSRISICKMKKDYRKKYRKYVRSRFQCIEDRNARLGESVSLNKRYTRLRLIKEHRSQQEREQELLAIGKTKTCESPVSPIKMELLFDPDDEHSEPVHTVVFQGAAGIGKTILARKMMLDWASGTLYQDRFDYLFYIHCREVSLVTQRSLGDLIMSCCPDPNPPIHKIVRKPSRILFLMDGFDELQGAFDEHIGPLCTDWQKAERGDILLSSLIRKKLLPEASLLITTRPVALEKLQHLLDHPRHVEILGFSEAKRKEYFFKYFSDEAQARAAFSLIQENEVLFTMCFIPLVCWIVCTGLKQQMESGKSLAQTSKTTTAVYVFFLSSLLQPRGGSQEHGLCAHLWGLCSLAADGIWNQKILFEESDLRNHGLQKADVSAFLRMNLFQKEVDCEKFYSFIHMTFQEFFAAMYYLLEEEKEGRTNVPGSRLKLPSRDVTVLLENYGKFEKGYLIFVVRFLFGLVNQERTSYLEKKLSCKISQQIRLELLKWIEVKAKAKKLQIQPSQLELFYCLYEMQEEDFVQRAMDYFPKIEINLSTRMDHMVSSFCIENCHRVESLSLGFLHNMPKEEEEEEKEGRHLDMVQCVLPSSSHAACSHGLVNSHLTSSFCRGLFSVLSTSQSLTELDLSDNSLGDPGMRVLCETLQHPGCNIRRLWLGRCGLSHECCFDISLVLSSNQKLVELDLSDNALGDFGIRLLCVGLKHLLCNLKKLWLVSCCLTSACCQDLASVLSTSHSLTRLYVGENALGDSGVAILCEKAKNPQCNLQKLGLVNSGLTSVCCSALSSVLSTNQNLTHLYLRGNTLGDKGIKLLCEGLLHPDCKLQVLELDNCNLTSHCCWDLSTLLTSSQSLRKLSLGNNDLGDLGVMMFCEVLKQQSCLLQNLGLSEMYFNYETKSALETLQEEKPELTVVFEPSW

`CC(CN(C)C)S(=O)(=O)NC(=O)Nc1c2c(cc3c1CCC3)CCC2` (stereo not shown) [Example 26, 1-(Dimethylamino)-N-((1,2,3,5,6,7-hexahydro-s-indacen-4-yl)carbamoyl)propane-2-sulfonamide, potassium salt] and `C[N+](C)(C)CCCS(=O)(=O)NC(=O)Nc1c2c(cc3c1CCC3)CCC2` [Example 66, 3-(N-((1,2,3,5,6,7-Hexahydro-s-indacen-4-yl)carbamoyl)sulfamoyl)-N,N,N-trimethylpropan-1-aminium, Potassium Salt] fall in the same range of IC50: 2 to 10 µM for the first, 2 to 10 µM for the second.

`CCN1CC2(CC(S(=O)(=O)NC(=O)Nc3c4c(cc5c3CCC5)CCC4)C2)C1` [Example 38, 2-Ethyl-N-((1,2,3,5,6,7-hexahydro-s-indacen-4-yl)carbamoyl)-2-azaspiro[3.3]heptane-6-sulfonamide, potassium salt] and `CN1CC2(CC(S(=O)(=O)NC(=O)Nc3c4c(cc5c3CCC5)CCC4)C2)C1` [Example 40, N-((1,2,3,5,6,7-Hexahydro-s-indacen-4-yl)carbamoyl)-2-methyl-2-azaspiro[3.3]heptane-6-sulfonamide, potassium salt] fall in the same range of IC50: 2 to 10 µM for the first, 2 to 10 µM for the second.

`CC(C)N1CC2(CC(S(=O)(=O)NC(=O)Nc3c4c(cc5c3CCC5)CCC4)C2)C1` [Example 39, N-((1,2,3,5,6,7-Hexahydro-s-indacen-4-yl)carbamoyl)-2-isopropyl-2-azaspiro[3.3]heptane-6-sulfonamide, potassium salt] and `CCN(C(C)=O)C1CCC(S(=O)(=O)NC(=O)Nc2c3c(cc4c2CCC4)CCC3)CC1` (stereo not shown) [Example 63, N-ethyl-N-(4-(N-((1,2,3,5,6,7-hexahydro-s-indacen-4-yl)carbamoyl)sulfamoyl)cyclohexyl)acetamide] fall in the same range of IC50: 2 to 10 µM for the first, 2 to 10 µM for the second.

`CCN(CCCS(=O)(=O)NC(=O)Nc1c(-c2ccnc(C#N)c2)cc(F)cc1C(C)C)Cc1ccccc1` [Example 46, 3-(Benzyl(ethyl)amino)-N-((2-(2-cyanopyridin-4-yl)-4-fluoro-6-isopropylphenyl)carbamoyl)propane-1-sulfonamide] and `CC(C)c1cc(F)cc(-c2ccnc(C#N)c2)c1NC(=O)NS(=O)(=O)Cc1cccnc1` [Example 112, N-((2-(2-Cyanopyridin-4-yl)-4-fluoro-6-isopropylphenyl)carbamoyl)-1-(pyridin-3-yl)methanesulfonamide] fall in the same range of IC50: 2 to 10 µM for the first, 2 to 10 µM for the second.

`COCCCS(=O)(=O)NC(=O)Nc1c(-c2ccnc(C#N)c2)cc(F)cc1C(C)C` [Example 49, N-((2-(2-Cyanopyridin-4-yl)-4-fluoro-6-isopropylphenyl)carbamoyl)-3-methoxypropane-1-sulfonamide] and `CC(C)c1cc(F)cc(-c2ccnc(C#N)c2)c1NC(=O)NS(=O)(=O)CC1CCN(C)C1` (stereo not shown) [Example 57, N-((2-(2-Cyanopyridin-4-yl)-4-fluoro-6-isopropylphenyl)carbamoyl)-1-(1-methylpyrrolidin-3-yl)methanesulfonamide] fall in the same range of IC50: 2 to 10 µM for the first, 2 to 10 µM for the second.

`COc1cc(-c2cc(F)cc(C(C)C)c2NC(=O)NS(=O)(=O)Cc2cccnc2)ccn1` [Example 54, N-((4-Fluoro-2-isopropyl-6-(2-methoxypyridin-4-yl)phenyl)carbamoyl)-1-(pyridin-3-yl)methanesulfonamide] and `COc1cc(-c2ccc3c(c2NC(=O)NS(=O)(=O)Cc2cccnc2)CCC3)ccn1` [Example 55, N-((5-(2-Methoxypyridin-4-yl)-2,3-dihydro-1H-inden-4-yl)carbamoyl)-1-(pyridin-3-yl)methanesulfonamide] fall in the same range of IC50: 2 to 10 µM for the first, 2 to 10 µM for the second.

`O=C(Nc1c(-c2ccncc2)cc(F)c2c1CCC2)NS(=O)(=O)Cc1cccnc1` [Example 56, N-((7-Fluoro-5-(pyridin-4-yl)-2,3-dihydro-1H-inden-4-yl)carbamoyl)-1-(pyridin-3-yl)methanesulfonamide] and `CN1CCC(CS(=O)(=O)NC(=O)Nc2c(-c3ccncc3)cc(F)c3c2CCC3)C1` (stereo not shown) [Example 60, N-((7-Fluoro-5-(pyridin-4-yl)-2,3-dihydro-1H-inden-4-yl)carbamoyl)-1-(1-methylpyrrolidin-3-yl)methanesulfonamide] fall in the same range of IC50: 2 to 10 µM for the first, 2 to 10 µM for the second.

First: O=C(Nc1c2c(cc3c1CCC3)CCC2)NS(=O)(=O)CC1CCN(C2COC2)C1 (stereo not shown) [Example 64, N-((1,2,3,5,6,7-Hexahydro-s-indacen-4-yl)carbamoyl)-1-(1-(oxetan-3-yl)pyrrolidin-3-yl)methanesulfonamide, Potassium Salt]
Second: O=C(Nc1c2c(cc3c1CCC3)CCC2)NS(=O)(=O)C1(CN2CCC2)CC1 [Example 87, 1-(Azetidin-1-ylmethyl)-N-((1,2,3,5,6,7-hexahydro-s-indacen-4-yl)carbamoyl)cyclopropane-1-sulfonamide]
The IC50 of the first is higher: 2 to 10 µM for the first, 1.6 to 2 µM for the second.

`NCCCS(=O)(=O)NC(=O)Nc1c2c(cc3c1CCC3)CCC2` [Example 65, 3-Amino-N-((1,2,3,5,6,7-hexahydro-s-indacen-4-yl)carbamoyl) propane-1-sulfonamide potassium salt] and `O=C(Nc1c2c(cc3c1CCC3)CCC2)NS(=O)(=O)CCCCN1CCC1` [Example 86, 4-(Azetidin-1-yl)-N-((1,2,3,5,6,7-hexahydro-s-indacen-4-yl)carbamoyl)butane-1-sulfonamide] fall in the same range of IC50: 2 to 10 µM for the first, 2 to 10 µM for the second.

First: CC1(C)C2CC[C@@]1(CS(=O)(=O)NC(=O)Nc1c3c(cc4c1CCC4)CCC3)C(N)C2 (stereo partly drawn) [Example 85, 1-((1S)-2-Amino-7,7-dimethylbicyclo[2.2.1]heptan-1-yl)-N-((1,2,3,5,6,7-hexahydro-s-indacen-4-yl)carbamoyl)methanesulfonamide]
Second: COCCC(=O)N(C)CCCS(=O)(=O)NC(=O)Nc1c2c(cc3c1CCC3)CCC2 [Example 94, N-(3-(N-((1,2,3,5,6,7-Hexahydro-s-indacen-4-yl)carbamoyl)sulfamoyl)propyl)-3-methoxy-N-methylpropanamide]
The IC50 of the first is higher: 2 to 10 µM for the first, 1.6 to 2 µM for the second. The second is the more potent here.

`CC(C)c1cc(F)cc(C(C)C)c1NC(=O)NS(=O)(=O)CCCN(C)C` [Example 101, 3-(Dimethylamino)-N-((4-fluoro-2,6-diisopropylphenyl)carbamoyl)propane-1-sulfonamide] and `CC(C)c1cc(Cl)cc(C(C)C)c1NC(=O)NS(=O)(=O)CCCN(C)C` [Example 108, 3-(Dimethylamino)-N-((4-chloro-2,6-diisopropylphenyl)carbamoyl)propane-1-sulfonamide] fall in the same range of IC50: 2 to 10 µM for the first, 2 to 10 µM for the second.
